{"source": "patent US11573231B2", "about": "“Biomarker of aging” (Max-Planck-Gesellschaft zur Forderung der Wissenschaften …, priority 2017, dated 2023)", "tested_on": "irg-1", "assay": "Pirg-1GFP translation suppression reporter in worms", "type": "in vivo, C. elegans", "conditions": "3-hour treatment, 2 mg/ml", "from_the_text": "DIC microscopy was used to perform all the nucleolar imaging. Hypodermal cells of age-matched day 1 adults were imaged using 100× magnification with Olympus IX81. Freehand tool software from Fiji was used for nucleolar area quantification. FIB-1::GFP, HLH-30::GFP and N2+Pirg-1GFP worms were imaged using Olympus IX81 and Axio Imager Z1(Zeiss).", "data": [{"smiles": "C[C@@H]1C[C@@H]([C@H](O)CC2CC(=O)NC(=O)C2)C(=O)[C@@H](C)C1", "note": "[cycloheximide]", "values": [{"measurement": "Pirg-1GFP reporter induction", "value": "induced"}, {"measurement": "Pirg-1GFP reporter induction", "setting": "listed as Cyclohexamide", "value": "strongly induced"}]}]}
